Results on 8 compounds are retold here after PubChem BioAssay (NCI).

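Step 1: Grow cells in 96-well plates. Step 2: Expose to compound for 48 hours at 5 concentrations. Step 3: Interpolate endpoints linearly; if unreached, use highest concentration. Here, GI50 denotes the concentration required for 50% inhibition of growth. At the TGI there is no net growth.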

Assay in all cases: DTP human tumour cell line panel, 48 h
Test [1] concerns COLO 205 colon.
Test [2] deals with DU-145 prostate.
Test [3] relates to HCC-2998 colon.
For test [4], the system named is HCT-15 colon.
Test [5] deals with HL-60(TB) leukemia.
Test [6] relates to HOP-92 NSCLC.
The test system of test [7] is MDA-MB-231 breast.
Test [8] concerns NCI-H23 lung.
The test system of test [9] is OVCAR-5 ovarian.
Test [10] concerns SF-268 CNS.

As for `C/C(=C\c1csc(C)n1)[C@@H]1C[C@@H]2O[C@]2(C)CCC[C@H](C)[C@H](O)[C@@H](C)C(=O)C(C)(C)[C@@H](O)CC(=O)N1`, the 50% growth inhibitory concentration (GI50) – broadly, the concentration giving 50% growth inhibition – in test [1] is 0.000182 µM; in test [2], 0.000166 µM; in test [3], 0.000121 µM; in test [4] it was 0.000152 µM; in test [5], 0.083 nM; in [6], < 0.01 nM. Also, the concentration for 50% growth inhibition (GI50) is 0.000312 µM in [7], 0.00019 µM in [8], 0.000262 µM in test [9] and 0.000215 µM in test [10]. The TGI (commonly the concentration at which net growth stops) in test [1] is 0.000438 µM; in [2] it was 0.000254 µM; in test [3], 0.000243 µM; in [4] it was 0.000344 µM; in test [5], 0.000163 µM; in [6] it was < 1e-05 µM. The total growth inhibition concentration (TGI) amounted to 0.000479 µM in test [7], 0.000412 µM in [8], 0.000447 µM in test [9] and 0.000446 µM in test [10].

On to `CC1=C(C(=O)Nc2ccc3[nH]ncc3c2)C(c2ccc(F)cc2)N=C(c2ccc(C(F)(F)F)nc2)N1` (configuration not stated), for which the GI50 was > 25 µM in [1]; > 25 µM in test [2]; > 25 µM in test [3]; 16.2 µM in [4]; 6670 nM in [5]; 548 nM in test [6]. Moreover, the GI50 in test [7] is 10.1 µM; in test [8] it was 12.8 µM; in [9], > 25 µM; in test [10] it was 10.7 µM. For the same compound, the total growth inhibition concentration (TGI) in test [1] was > 25 µM; in [2], > 25 µM; in [3], > 25 µM; in test [4] it was > 25 µM; in [5], > 25 µM; in test [6] it was 7.6 µM. The TGI in test [7], in [8], in test [9] and in test [10] was > 25 µM each time.

As for `COc1cc2c(Oc3ccc(-c4cnc(Nc5ccc(F)cc5)n(C)c4=O)cc3F)ccnc2cc1OCCCN1CCOCC1`, the GI50 in test [2] is 1.56 µM; in [3], 1.48 µM; in test [4], 1.18 µM; in [6], 83 nM; in test [7] it was 1.4 µM; in test [8], 1.15 µM. For the same compound, the GI50 in test [9] is 1.04 µM; in test [10] it was 1.46 µM. The TGI in test [2] stood at 3.17 µM; in test [3], 2.94 µM; in test [4] it was 2.75 µM; in [6], 1.01 µM; in test [7] it was 2.93 µM; in test [8], 2.75 µM. Besides, the TGI in test [9] was found to be 2.45 µM; in test [10], 3.38 µM.

On to `FC(F)(F)c1cccc(CNC2CCN(CCc3ccccc3)CC2)c1`, for which the GI50 in [1] was 16.9 µM; in test [2] it was 46.3 µM; in [3], 17.7 µM; in [4] it was 23.3 µM; in test [5], 20900 nM; in [6], 11200 nM. The GI50 in [7] was 12.6 µM; in [8] it was 51.8 µM; in [9], 27.2 µM; in [10], 40.3 µM. Further, the TGI was 34.3 µM in test [1]; > 100 µM in test [2]; 37.2 µM in [3]; > 100 µM in [4]; 49 µM in test [5]; 47.1 µM in test [6]. Besides, the TGI in [7] is 35.2 µM; in test [8] it was > 100 µM; in test [9], > 100 µM; in test [10], > 100 µM.

In the case of `CC(=O)O[C@H]1C[C@@H]2[C@@]3(C)CC[C@H]4C[C@@]4(C)[C@@H]3CC[C@@]2(C)C2=CCC3=C(COC3=O)[C@]21C`, the GI50 was 34 µM in test [1]; 15.6 µM in [2]; 23.7 µM in test [3]; 21 µM in test [4]; 52700 nM in [5]; 16700 nM in [6]. Also, the GI50 in [7] is 15.8 µM; in test [8], 20.1 µM; in test [9], 19.3 µM; in [10] it was 21 µM. In addition, the TGI in test [1] is > 100 µM; in test [2], 38.5 µM; in test [3], 51.4 µM; in test [4] it was 56.1 µM; in test [5] it was > 100 µM; in test [6], 35 µM. The TGI stood at 35.9 µM in test [7], 49.9 µM in test [8], 39.5 µM in test [9] and 46.9 µM in [10].

For the compound `COc1cc(NC(=O)COc2ccccc2)c(C(N)=O)cc1OC`, the GI50 was 0.453 µM in test [1]; 0.914 µM in test [2]; 3.33 µM in test [3]; 0.804 µM in [4]; 293 nM in test [5]; 17700 nM in test [6]. Further, the GI50 in test [7] is 2.39 µM; in test [8], 1.32 µM; in test [9] it was 15 µM; in test [10] it was 6.77 µM. In addition, the TGI in test [1] was 5.13 µM; in test [2], > 100 µM; in [3] it was 68.3 µM; in test [4], > 100 µM; in [5], 7.25 µM; in test [6], 52.5 µM. Further, the total growth inhibition concentration (TGI) in test [7] was 42.4 µM; in test [8], 20.4 µM; in test [9], > 100 µM; in test [10], 45.7 µM.

On to `CCN1CCN(CC(=O)Nc2nc3ccc(NCc4ccc(Br)cc4)cc3s2)CC1`, for which the GI50 in [2] is 5.14 µM; in test [5], 1950 nM; in test [6], 1210 nM; in [7], 1.89 µM; in test [8] it was 3.22 µM. The TGI in [2] was > 100 µM; in [5], 3.81 µM; in [6] it was 3.04 µM; in test [7], 4.15 µM; in test [8] it was > 100 µM.

Take `O=C(NO)c1ccc(CNc2cccc3nc(C4CC4)n(-c4ccccc4)c(=O)c23)cc1`: the GI50 was 2.22 µM in test [1]; 2.52 µM in test [2]; 1.81 µM in test [3]; 1.98 µM in test [4]; 2390 nM in test [5]; 1990 nM in test [6]. For the same compound, the GI50 in test [7] is 2.31 µM; in test [9] it was 2.06 µM. Also, the concentration for total growth inhibition (TGI) in test [1] is 5.59 µM; in test [2] it was 13.7 µM; in test [3], 3.44 µM; in test [4] it was 6.33 µM; in test [5], 5.64 µM; in [6] it was 6.82 µM. Also, the concentration for total growth inhibition (TGI) was determined as 7.33 µM in [7] and 6.1 µM in [9].
